The values that follow come from US9327264B2, “Containerless synthesis of amorphous and nanophase organic materials” (UCHICAGO ARGONNE, LLC, priority 2011, dated 2016).

Read-outs that look alike come from different tables or passages of the source.

Holding throughout (type): physicochemical
Series [1] can be described thus: Retention of amorphous form on temperature exposure and room temperature storage (x-ray diffraction). Particulars: for Amorphous state during temperature exposure: exposure to temperatures between about −200° C. and 25° C.; for Time amorphous form could be stored: room temperature, in glass or in contact with polyimide film. The text has this: (Suitable film is polyimide film, e.g., Kapton from Dupont.)
The structure and properties of stable or meta-stable amorphous gels are often quite different from their crystalline counterparts. Therefore at, or just prior to, tP the gels were quenched into a small dish of liquid nitrogen in an attempt to preserve the amorphous forms. The cold solid samples were quickly recovered and re-levitated. In-situ x-ray structure measurements were then made on the cold solids as they warmed back to room temperature.
Generally, radiations greater than 40 keV are suitable to provide bulk structure detail of materials about a millimeter or two in size.

A short description of series [2]: Shelf life of substantially pure amorphized materials stored at 4° C. (x-ray diffraction). The text has this: The inventors have discovered that acoustic levitation produces amorphous forms of a variety of organic compounds having different glass forming abilities. […] It is also noted that the term “vitreous”, “vitrify”, “vitrification”, “glass” and “glassy” are variations of amorphous for the purposes of this specification and may be used interchangeably. The x-ray diffraction patterns were obtained using very high flux, high energy x-rays that are capable of detecting even minute (<1%) traces of crystalline materials. A configuration to enable x-ray beam analysis is depicted in FIG. 8 and discussed infra.
Several amorphized samples were quenched by trapping them in a small volume of liquid quenchent (for example liquid nitrogen, which is maintained at about −196° C.). The quenched samples were stored at temperatures ranging from about −20° C. to 25° C.
Shelf life is therefore extended by cooling them. […] For bulk storage of amorphized materials, samples are stored at temperatures below freezing (0° C.) if the samples are to be kept more than 150 days. However, for short term storage (e.g., less than 150 days), stability is achieved at storage temperatures up to about 20° C.
Myriad types of materials are candidates for processing using the invented weightless process. Suitable genuses of material include, but are not limited to pharmaceuticals, antibiotics, cosmetics, foods such as dairy products, and combinations thereof. Table 1 below depicts the sample stability over time for various amorphous materials produced using the invented method.
The structure of the starting crystalline materials, the supersaturated samples processed in the levitator, and the in-situ progress of the evaporation experiments were measured using the 115 keV x-ray diffraction beam line 11-ID-C at the Advanced Photon Source, located at Argonne National Laboratory, Argonne, Ill. X-rays with an incident wavelength of 0.10798 Å were used and the scattered x-ray intensity was measured with a flat plate a-Si Perkin Elmer area detector (model XRD 1621). Generally, radiations greater than 40 keV are suitable to provide bulk structure detail of materials about a millimeter or two in size.

A short description of series [3]: Glass transition temperature Tg. The procedure:
The quenched samples were stored at temperatures ranging from about −20° C. to 25° C.

A short description of series [4]: In situ x-ray monitoring of levitated amorphous gel over time. As to conditions: after more than 14 hours of in situ measurements on the levitated drop, from ethanol solution. The text has this: By following the position of the principal peak in the x-ray diffraction patterns for all the supersaturated solutions, the amorphization process was investigated as a function of time. […] The fact there are no sharp (needle like) peaks in the measured spectra indicates the materials are completely amorphous. […] Some of the samples prepared using the invented process maintained their amorphous form for at least three weeks. This imaging method enabled the structural evolution of the material to be monitored in real time. The data were acquired from levitated samples in two minute duration sets.

The mark [5] stands for this setting: quenched samples stored at about −20° C. to 25° C., as noted in Table 1.

Turning to `CC(C)(C)CC(C)(C)c1ccc(O)c(Cc2ccc(Cl)cc2Cl)c1` [Clofoctol], in series [1], the “Amorphous state during temperature exposure” value is “remain amorphous” and the “Time amorphous form could be stored” value is recorded as “at least three”.
For `Clc1ccc(COC(Cn2ccnc2)c2ccc(Cl)cc2Cl)c(Cl)c1` (stereo not shown) [Miconazole Nitrate], the “Stability of amorphized drug over a period of months” value (“Stability … over a period of months” for short) in series [2] (setting [5]) is “remained substantially stable”. In addition, in series [3], the Tg amounted to 1 °C.
As to `Clc1ccccc1C(c1ccccc1)(c1ccccc1)n1ccnc1` [Clotrimazole], the “Stability … over a period of months” value in series [2] (setting [5]) is given as “remained substantially stable”. In series [1], the “Amorphous state during temperature exposure” value is on record as “remain amorphous” and the “Time amorphous form could be stored” value is given as “at least three”. In addition, the Tg in series [3] was 30 °C.
In the case of `NC(=O)N1c2ccccc2C=Cc2ccccc21` [Carbamazepine], in series [2] (stored at 4° C., 1 month), the “Shelf life: amorphous state at time 1 month” value was “A/P”. Moreover, the “Shelf life: amorphous state at time 2 months” value in series [2] (stored at 4° C., 2 months) is on record as “A/P”. Also, in series [2] (stored at 4° C., 3 months), the “Shelf life: amorphous state at time 3 months” value is recorded as “A/P”. Also, the “Shelf life: amorphous state at time 4 months” value in series [2] (stored at 4° C., 4 months) was “A/P”. This compound also displayed a Tg in series [3] of 61 °C.
Consider `CC(C)Cc1ccc(C(C)C(=O)O)cc1` (stereo not shown) [Ibuprofen], for which the “Time amorphous form could be stored” value in series [1] is listed as “at least three”. The “Changes in structure of levitated amorphous gel after plateau” value in series [4] was “only minimal changes in structure”.
On to `C(=C\c1ccccc1)/CN1CCN(C(c2ccccc2)c2ccccc2)CC1` [Cinnazirine, Cinnarizine], for which the “Stability … over a period of months” value in series [2] (setting [5]) is reported as “remained substantially stable”. In series [3], the Tg was determined as 7 °C.
For `CC(C(=O)O)c1cccc(C(=O)c2ccccc2)c1` (stereo not shown) [Ketoprofen], in series [1], the “Amorphous state during temperature exposure” value was “remain amorphous” and the “Time amorphous form could be stored” value is recorded as “at least three”. Besides, the Tg in series [3] was −3 °C.
Regarding `CC(C)(Sc1cc(C(C)(C)C)c(O)c(C(C)(C)C)c1)Sc1cc(C(C)(C)C)c(O)c(C(C)(C)C)c1` [Probucol], the “Stability … over a period of months” value in series [2] is recorded as “remained substantially stable”. Further, the Tg in series [3] stood at 27 °C.
